Assay: Stopping Glimepiride tablets after secondary failure, then resuming; effect on blood glucose
Type: in vivo, human
Settings: then resumed
Excerpt: From new research, I found a new usage of sulfonylurea drug Glimepiride when secondary failure occurs. […] It is likely that recovery works because stopping taking the drug fools the human body to assume like the first day taking it which it is claimed.
Since pre-diabetes and/or diabetes have used sulfonylurea drugs since the mid-1950s (1), there is no new matter or invention of sulfonylurea drugs in this patent application. The newness in this patent application is the usage of sulfonylurea drug like Glimepiride that fails to work when secondary failure occurs by stopping taking the tablet for 3 or 5 days which automatically also lower blood glucose and then resuming taking it that works like the first day taking it. In essence, it prevents the patient from taking more dosage of medication and/or changing to another different medication.

**Q.** Which “effectiveness to lower blood glucose” value (tablets stopped for 3 days) does the source give for `CCC1=C(C)CN(C(=O)NCCc2ccc(S(=O)(=O)NC(=O)N[C@H]3CC[C@H](C)CC3)cc2)C1=O` [Glimepiride] here?
**A.** recovers Glimepiride's effectiveness to lower blood glucose like the first day taking it

**Q.** What about the recovery effectiveness (tablets stopped for 5 days) of the same compound?
**A.** recovery effectiveness was first detected

From patent US9101611B1, “Use of sulfonylurea (Glimepiride) to lower blood glucose” (priority 2014, dated 2015)
